# Target: T1, Human PPARα (Homo sapiens, UniProt Q07869)
# T1 construct: host or cells: proprietary non-human mammalian cells
# T1 sequence (Q07869 1-468): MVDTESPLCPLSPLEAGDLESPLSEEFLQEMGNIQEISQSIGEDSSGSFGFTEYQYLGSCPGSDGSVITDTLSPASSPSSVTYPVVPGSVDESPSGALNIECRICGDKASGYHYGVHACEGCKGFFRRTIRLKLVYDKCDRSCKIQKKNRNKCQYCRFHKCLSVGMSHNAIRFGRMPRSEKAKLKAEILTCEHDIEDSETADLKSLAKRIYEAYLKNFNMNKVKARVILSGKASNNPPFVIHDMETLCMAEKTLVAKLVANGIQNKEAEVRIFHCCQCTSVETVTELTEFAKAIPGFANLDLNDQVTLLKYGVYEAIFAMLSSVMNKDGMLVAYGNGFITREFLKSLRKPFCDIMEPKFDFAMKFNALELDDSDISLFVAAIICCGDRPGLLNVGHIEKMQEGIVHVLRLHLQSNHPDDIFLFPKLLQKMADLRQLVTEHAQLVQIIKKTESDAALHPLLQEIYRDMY
# Assay: Human PPARα Reporter Assay (luciferase)
# Format: cell-based
# Details: human PPARα reporter cells, overnight incubation, antagonism; read-out: Luciferase IC50
# Method: Human PPARα Reporter Assay
# The screening of test compounds for agonist or antagonist activities against human PPARα receptors was performed using a commercial kit, Human PPARα Reporter Assay System (Indigo Biosciences, Cat. #IB00111).
# This nuclear receptor assay system utilizes proprietary non-human mammalian cells engineered to provide constitutive, high-level expression of Human PPARα. Because these cells incorporate a PPARα-responsive luciferase reporter gene, quantifying expressed luciferase activity provides a sensitive surrogate measure of PPARα activity in the treated cells. The primary application of this reporter assay system is in the screening of test samples to quantify any functional activity, either agonist or antagonist, that they may exert against human PPARα.
# Briefly, reporter cells are dispensed into wells of the assay plate and then immediately dosed with test compounds. Following an overnight incubation, the treatment media is discarded and Luciferase Detection Reagent (LDR) is added. The intensity of light emission from the ensuing luciferase reaction provides a sensitive measure that is directly proportional to the relative level of PPARα activation in the reporter cells.
row,IC50 [nM],Compound
1,98,"CCn1c(CCCc2ccc(-c3ccc(OC)c(CC(=O)O)c3)cc2O)nn(Cc2ccc(C(C)(C)C)cc2)c1=O [Example 146, 2-(4′-(3-(1-(4-(tert-Butyl)benzyl)-4-ethyl-5-oxo-4,5-dihydro-1H-1,2,4-triazol-3-yl)propyl)-3′-hydroxy-4-methoxy-[1,1′-biphenyl]-3-yl) acetic acid]"
2,184,"CCn1c(CCCc2ccc(-c3nc(NC(=O)OC(C)(C)C)co3)cc2)nn(Cc2ccc(C(C)(C)C)cc2)c1=O [Example 25, tert-Butyl (2-(4-(3-(1-(4-(tert-butyl)benzyl)-4-ethyl-5-oxo-4,5-dihydro-1H-1,2,4-triazol-3-yl)propyl)phenyl)oxazol-4-yl)carbamate]"
3,7,"CCn1c(CCCc2ccc(-c3ccc(OC)c(NS(=O)(=O)c4ccc(OC)nc4)n3)cc2)nn(Cc2ccc(C(C)(C)C)cc2)c1=O [Example 114, 1-{[4-(tert-Butyl)phenyl]methyl}-4-ethyl-3-{3-[4-(5-methoxy-6-{[(6-methoxy(3-pyridyl))sulfonyl]amino}(2-pyridyl))phenyl]propyl}-1,2,4-triazolin-5-one]"
4,181,"CCn1c(CCCc2ccc(-c3cccc(NS(=O)(=O)c4ccc(C(F)(F)F)cc4)n3)cc2)nn(Cc2ccc(C(C)(C)C)cc2)c1=O [Example 82, 1-{[4-(tert-Butyl)phenyl]methyl}-4-ethyl-3-(3-{4-[6-({[4-(trifluoromethyl)phenyl]sulfonyl}amino)(2-pyridyl)]phenyl}propyl)-1,2,4-triazolin-5-one]"
5,471,"CCn1c(CCCc2ccc(-c3cccc(NS(=O)(=O)c4ccc(C)cc4)c3)cc2)nn(Cc2ccc(C(C)(C)C)cc2)c1=O [Example 7, N-(4′-(3-(1-(4-(tert-Butyl)benzyl)-4-ethyl-5-oxo-4,5-dihydro-1H-1,2,4-triazol-3-yl)propyl)-[1,1′-biphenyl]-3-yl)-4-methylbenzenesulfonamide]"
6,250,"COc1ccc(-c2ccc(CCCc3nn(Cc4ccc(C(C)(C)C)cc4)c(=O)n3CC(F)(F)F)cc2)cc1CC(=O)O [Example 55, 2-(4′-(3-(1-(4-(tert-Butyl)benzyl)-5-oxo-4-(2,2,2-trifluoroethyl)-4,5-dihydro-1H-1,2,4-triazol-3-yl)propyl)-4-methoxy-[1,1′-biphenyl]-3-yl)acetic acid]"
7,638,"CCn1c(CCCc2ccc(-c3ccc(C(F)(F)F)c(N)n3)cc2)nn(Cc2ccc(C(C)(C)C)cc2)c1=O [Example 161, 3-(3-{4-[6-Amino-5-(trifluoromethyl)(2-pyridyl)]phenyl}propyl)-1-{[4-(tert-butyl)phenyl]methyl}-4-ethyl-1,2,4-triazolin-5-one]"
8,1280,"CCn1c(CC2CC2c2ccc(-c3cccc(CC(=O)O)c3)cc2)nn(Cc2ccc(C(C)(C)C)cc2)c1=O (stereo not shown) [Example 30, 2-(4′-(2-((1-(4-(tert-butyl)benzyl)-4-ethyl-5-oxo-4,5-dihydro-1H-1,2,4-triazol-3-yl)methyl)cyclopropyl)-[1,1′-biphenyl]-3-yl)acetic acid]"
9,6,"CCn1c(CCCc2ccc(-c3ccc(OC)c(C(=O)O)c3)cc2)nn(Cc2ccc(C(C)(C)C)cc2)c1=O [Example 65, 4′-(3-(1-(4-(tert-Butyl)benzyl)-4-ethyl-5-oxo-4,5-dihydro-1H-1,2,4-triazol-3-yl)propyl)-4-methoxy-[1,1′-biphenyl]-3-carboxylic acid]"
10,427,"CCn1c(CCCc2ccc(-c3ccc(F)c(CC(=O)O)c3)cc2)nn(Cc2ccc(C(C)(C)C)cc2)c1=O [Example 33, 2-(4′-(3-(1-(4-(tert-Butyl)benzyl)-4-ethyl-5-oxo-4,5-dihydro-1H-1,2,4-triazol-3-yl)propyl)-4-fluoro-[1,1′-biphenyl]-3-yl)acetic acid]"
11,423,"CCn1c(CCCc2ccc(-c3ccc(OC)c(CNS(=O)(=O)c4ccccc4)c3)cc2)nn(Cc2ccc(C(C)(C)C)cc2)c1=O [Example 185, 1-{[4-(tert-Butyl)phenyl]methyl}-4-ethyl-3-{3-[4-(4-methoxy-3-{[(phenylsulfonyl)amino]methyl}phenyl)phenyl]propyl}-1,2,4-triazolin-5-one]"
12,41,"CCn1c(CCCc2ccc(-c3cnc(C4(F)COC4)nc3)cc2)nn(Cc2ccc(C(C)(C)C)cc2)c1=O [Example 170, 1-(4-(tert-Butyl)benzyl)-4-ethyl-3-(3-(4-(2-(3-fluorooxetan-3-yl)pyrimidin-5-yl)phenyl)propyl)-1H-1,2,4-triazol-5(4H)-one]"
13,201,"CCn1c(CCCc2ccc(-c3cc(C)c(NS(=O)(=O)c4ccccc4)cn3)cc2)nn(Cc2ccc(C(C)(C)C)cc2)c1=O [Example 126, 1-{[4-(tert-Butyl)phenyl]methyl}-4-ethyl-3-[3-(4-{4-methyl-5-[(phenylsulfonyl)amino](2-pyridyl)}phenyl)propyl]-1,2,4-triazolin-5-one]"
14,95,"CCn1c(CCCc2ccc(-c3cccc(CC(=O)O)c3)cc2)nn(Cc2ccc(C(C)(C)C)cc2)c1=O [Example 1, 2-(4′-(3-(1-(4-(tert-Butyl)benzyl)-4-ethyl-5-oxo-4,5-dihydro-1H-1,2,4-triazol-3-yl)propyl)-[1,1′-biphenyl]-3-yl)acetic acid]"
15,36,"CCn1c(CCCc2ccc(-c3cncc(NS(=O)(=O)c4ccccc4)n3)cc2)nn(Cc2ccc(C(C)(C)C)cc2)c1=O [Example 129, N-(6-(4-(3-(1-(4-(tert-Butyl)benzyl)-4-ethyl-5-oxo-4,5-dihydro-1H-1,2,4-triazol-3-yl)propyl)phenyl)pyrazin-2-yl)benzenesulfonamide]"
16,652,"CCn1c(CCCc2ccc(-c3cccc(C(C)C(=O)O)c3)cc2)nn(Cc2ccc(C(C)(C)C)cc2)c1=O (stereo not shown) [Example 44, 2-(3-{4-[3-(1-{[4-(tert-Butyl)phenyl]methyl}-4-ethyl-5-oxo-1,2,4-triazolin-3-yl)propyl]phenyl}phenyl)propanoic acid]"
17,3,"CCOc1ccc(-c2ccc(CCCc3nn(Cc4ccc(C(C)(C)C)cc4)c(=O)n3CC)cc2)cc1C(=O)O [Example 66, 4′-(3-(1-(4-(tert-Butyl)benzyl)-4-ethyl-5-oxo-4,5-dihydro-1H-1,2,4-triazol-3-yl)propyl)-4-ethoxy-[1,1′-biphenyl]-3-carboxylic acid]"
18,22,"CCCn1c(CCCc2ccc(-c3ccc(OC)c(CC(=O)O)c3)cc2)nn(Cc2ccc(C(C)(C)C)cc2)c1=O [Example 80, 2-(4′-(3-(1-(4-(tert-Butyl)benzyl)-5-oxo-4-propyl-4,5-dihydro-1H-1,2,4-triazol-3-yl)propyl)-4-methoxy-[1,1′-biphenyl]-3-yl)acetic acid]"
19,12,"CCn1c(CCCc2ccc(-c3ccc(C)c(C(=O)O)c3)cc2)nn(Cc2ccc(C(C)(C)C)cc2)c1=O [Example 132, 4′-(3-(1-(4-(tert-Butyl)benzyl)-4-ethyl-5-oxo-4,5-dihydro-1H-1,2,4-triazol-3-yl)propyl)-4-methyl-[1,1′-biphenyl]-3-carboxylic acid]"
20,160,"CCn1c(CCCc2ccc(-c3ccc(C)c(NS(=O)(=O)c4ccccc4)c3)cc2)nn(Cc2ccc(C(C)(C)C)cc2)c1=O [Example 152, 1-{[4-(tert-Butyl)phenyl]methyl}-4-ethyl-3-[3-(4-{4-methyl-3-[(phenylsulfonyl)amino]phenyl}phenyl)propyl]-1,2,4-triazolin-5-one]"
21,662,"CCn1c(CCCc2ccc(-c3cccc(CC(=O)O)c3)cc2)nn(Cc2ccc(C(C)(C)C)c(C3CC3)c2)c1=O [Example 85, 2-(4′-(3-(1-(3-Cyclopropyl-4-(tert-butyl)benzyl)-4-ethyl-5-oxo-4,5-dihydro-1H-1,2,4-triazol-3-yl)propyl)-[1,1′-biphenyl]-3-yl)acetic acid]"
22,454,"CC(C)(C)c1ccc(Cn2nc(CCCc3ccc(-c4ccc(C5(O)COC5)cc4)cc3)[nH]c2=O)cc1 [Example 167, 1-(4-(tert-Butyl)benzyl)-3-(3-(4%(3-hydroxyoxetan-3-yl)-[1,1′-biphenyl]-4-yl)propyl)-1H-1,2,4-triazol-5(4H)-one]"
23,799,"CCn1c(CCCc2ccc(-c3cncc(NS(=O)(=O)c4ccccc4)c3)cc2)nn(Cc2ccc(C(C)(C)C)cc2)c1=O [Example 117, N-(5-(4-(3-(1-(4-(tert-Butyl)benzyl)-4-ethyl-5-oxo-4,5-dihydro-1H-1,2,4-triazol-3-yl)propyl)phenyl)pyridin-3-yl)benzenesulfonamide]"
24,268,"CCn1c(CCCc2ccc(-c3cccc(C4(C(=O)O)CC4)c3)cc2)nn(Cc2ccc(C(C)(C)C)cc2)c1=O [Example 13, 1-(4′-(3-(1-(4-(tert-Butyl)benzyl)-4-ethyl-5-oxo-4,5-dihydro-1H-1,2,4-triazol-3-yl)propyl)-[1,1′-biphenyl]-3-yl)cyclopropanecarboxylic acid]"
25,101,"CCn1c(CCCc2ccc(-c3ccc(C4(F)COC4)cc3)cc2)nn(Cc2ccc(C(C)(C)C)cc2)c1=O [Example 143, 1-(4-(tert-Butyl)benzyl)-4-ethyl-3-(3-(4%(3-fluorooxetan-3-yl)-[1,1′-biphenyl]-4-yl)propyl)-1H-1,2,4-triazol-5(4H)-one]"
